“And” between values parts separate entries of the source, which are not always exact repeats. Identical values can stand only once.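 Growth conditions: 96-well plates. Treatment: test compound, 48 hours, 5 concentrations. Analysis: linear interpolation between bracketing concentrations; unreached endpoints set to highest concentration. GI50 is the concentration that inhibits growth by half. TGI: total growth inhibition.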

This passage reports GI50 and TGI results from PubChem BioAssay (NCI).

Common to all, as to experiment: growth of human tumour cells (NCI), 48 h
In experiment [1] the test system is 786-0 renal.
Experiment [2] relates to A498 renal.
For experiment [3], the system named is A549 NSCLC.
The test system of experiment [4] is ACHN renal.
Experiment [5] concerns BT-549 breast.
Experiment [6] has as its system CAKI-1 renal.
In experiment [7] the test system is CCRF-CEM leukemia.
The subject of experiment [8] is COLO 205 colon.
Experiment [9] relates to DU-145 prostate.
Experiment [10] deals with EKVX NSCLC.
Experiment [11] relates to HCC-2998 colon.
Experiment [12] relates to HCT-116 colon.
Experiment [13] deals with HCT-15 colon.
Experiment [14] deals with HL-60(TB) leukemia.
Experiment [15] has as its system HOP-62 NSCLC.
The subject of experiment [16] is HOP-92 NSCLC.
Experiment [17] has as its system HS 578T breast.
For experiment [18], the system named is HT29 colon.
The subject of experiment [19] is IGROV1 ovarian.
Experiment [20] relates to K-562 leukemia.
Experiment [21] deals with KM12 colon.
Experiment [22] relates to LOX IMVI melanoma.
For experiment [23], the system named is M14 melanoma.
In experiment [24] the test system is MALME-3M melanoma.
The test system of experiment [25] is MCF7 breast.
For experiment [26], the system named is MDA-MB-435.
Experiment [27] has as its system MDA-MB-468 breast.
Experiment [28] has as its system MOLT-4 leukemia.
In experiment [29] the test system is NCI-H226 lung.
Experiment [30] deals with NCI-H23 lung.
In experiment [31] the test system is NCI-H460 lung.
The test system of experiment [32] is NCI-H522 lung.
Experiment [33] deals with NCI/ADR-RES ovarian.
In experiment [34] the test system is OVCAR-3 ovarian.
Experiment [35] deals with OVCAR-4 ovarian.
Experiment [36] deals with OVCAR-5 ovarian.
Experiment [37] concerns OVCAR-8 ovarian.
The test system of experiment [38] is PC-3 prostate.
In experiment [39] the test system is RPMI-8226 leukemia.
Experiment [40] deals with RXF 393 renal.
Experiment [41] has as its system SF-268 CNS.
Experiment [42] concerns SF-295 CNS.
Experiment [43] has as its system SF-539 CNS.
The test system of experiment [44] is SK-MEL-28 melanoma.
Experiment [45] relates to SK-MEL-5 melanoma.
In experiment [46] the test system is SK-OV-3 ovarian.
The test system of experiment [47] is SN12C renal.
The subject of experiment [48] is SNB-19 CNS.
Experiment [49] has as its system SR leukemia.
Experiment [50] deals with SW-620 colon.
For experiment [51], the system named is T-47D breast.
The subject of experiment [52] is TK-10 renal.
In experiment [53] the test system is U251 CNS.
The test system of experiment [54] is UACC-257 melanoma.
Experiment [55] has as its system UACC-62 melanoma.

Regarding `CC[C@]12C=CCN3CC[C@@]4(c5ccc(OC)cc5N(C)[C@H]4[C@@](O)(C(=O)OC)[C@@H]1OC(=O)CCCC[P+](C1CCCCC1)(C1CCCCC1)C1CCCCC1)[C@@H]32`, the GI50 in [1] is 5.43 µM; in [2], 13.3 µM; in experiment [3], 3.13 µM; in experiment [4], 16 µM; in experiment [5], 2.45 µM; in experiment [6], 16.7 µM. Also, the GI50 in experiment [7] is 2.55 µM; in [8], 0.377 µM; in experiment [9], 3.65 µM; in experiment [10] it was 3.13 µM; in experiment [11], 1.31 µM; in [12], 2.94 µM. For the same compound, the GI50 in experiment [13] is 16.1 µM; in [14], 0.293 µM; in [15], 3.9 µM; in experiment [16], 1.02 µM; in [17], 2.61 µM; in experiment [18], 1.43 µM. Moreover, the GI50 in [19] was 1.36 µM; in experiment [20] it was 0.983 µM; in [21] it was 1.72 µM; in experiment [22], 2.9 µM; in experiment [23] it was 2.2 µM; in experiment [24] it was 1.63 µM. The GI50 in [25] is 1.05 µM; in experiment [26], 2.62 µM; in [27], 0.378 µM; in experiment [28], 1.72 µM; in [29], 4.41 µM; in experiment [30] it was 2.34 µM. Also, the GI50 in experiment [31] is 2.71 µM; in experiment [32], 0.643 µM; in [33] it was 56.5 µM; in experiment [34], 1.93 µM; in experiment [35] it was 2.73 µM; in experiment [36] it was 3.19 µM. Besides, the GI50 is 2.93 µM in experiment [37]; 1.46 µM in experiment [38]; 0.412 µM in [39]; 1.24 µM in experiment [40]; 3.17 µM in experiment [41]; 4.4 µM in [42]. Further, the GI50 in experiment [43] is 2.85 µM; in experiment [44] it was 1.38 µM; in [45] it was 1.88 µM; in [46], 2.28 µM; in experiment [47], 2.77 µM; in [48], 1.92 µM. The GI50 in [49] was 1.39 µM; in [50] it was 2.75 µM; in experiment [51], 0.92 µM; in [52] it was 3.08 µM; in [53], 0.639 µM; in experiment [54], 1.57 µM. In [55], the GI50 was 1.53 µM. The TGI in [1] was found to be 18.9 µM; in experiment [2] it was 27.4 µM; in experiment [3] it was 13.1 µM; in experiment [4], 29.6 µM; in experiment [5], 6.55 µM; in experiment [6], 30.6 µM. Also, the TGI stood at 10.5 µM in [7]; 1.23 µM in experiment [8]; 14.8 µM in experiment [9]; 16.2 µM in experiment [10]; 10.3 µM in [11]; 12 µM in [12]. In addition, the TGI in experiment [13] worked out at 30.5 µM; in [14], 1.41 µM; in experiment [15], 13.8 µM; in experiment [16] it was 3.9 µM; in [17], 8.67 µM; in experiment [18] it was 3.88 µM. For the same compound, the TGI stood at 4.66 µM in experiment [19]; 16.2 µM in experiment [20]; 6.34 µM in [21]; 10.9 µM in experiment [22]; 12 µM in experiment [23]; 3.7 µM in [24]. The TGI in [25] is 8.18 µM; in experiment [26], 10.7 µM; in [27] it was 1.54 µM; in experiment [28], 7.9 µM; in [29], 17.9 µM; in [30], 8.99 µM. Also, the TGI was 12.2 µM in [31]; 6.79 µM in experiment [32]; over 100 µM in experiment [33]; 10.9 µM in experiment [34]; 13.8 µM in [35]; 12.1 µM in experiment [36]. Also, the TGI in experiment [37] is 11.9 µM; in experiment [38], 10.4 µM; in [39] it was 2.01 µM; in experiment [40], 5.4 µM; in experiment [41], 12.9 µM; in experiment [42], 16.1 µM. Further, the TGI in experiment [43] came out at 11 µM; in [44], 5.25 µM; in experiment [45], 3.74 µM; in [46] it was 6.94 µM; in experiment [47], 9.91 µM; in experiment [48], 11.3 µM. Also, the TGI was 5.36 µM in experiment [49]; 15.1 µM in [50]; 11.2 µM in experiment [51]; 14.9 µM in experiment [52]; 12.4 µM in experiment [53]; 3.9 µM in experiment [54]. The compound also displayed a TGI in [55] of 3.64 µM.

In the case of `O=C1Nc2ccccc2/C1=C\c1nc(-c2ccccc2F)n2ccccc12`, in [27], the GI50 was 1.54 µM and the TGI amounted to 5.51 µM.

Turning to `O=C(/C=C/c1ccccn1)c1ccc(OCc2nnc(-c3ccc(Cl)cc3)o2)cc1`, in experiment [27], the GI50 is 1.71 µM and the TGI was found to be 3.56 µM.

For the compound `COc1cc2ncnc(Nc3ccc(Oc4ccnc(C)c4)c(C)c3)c2cc1NC(=O)CC1CCSS1` (centres undefined), in [27], the GI50 is 0.784 µM and the TGI stood at 1.73 µM.

In the case of `CNC(=O)c1c(F)cccc1Nc1nc(Nc2cc3c(cc2OC)CCN3C(=O)CN(C)C)nc2[nH]ccc12`, in experiment [27], the GI50 is 2.34 µM and the TGI stood at 8.85 µM.

As for `NCCCNc1nc2ccccc2c2c(=O)c3cccc(Cl)c3sc12`, in [27], the GI50 is 0.837 µM and the TGI was found to be 2.25 µM.

Regarding `Nc1cc(F)ccc1NC(=O)c1ccc(NC(=O)C/C=C/c2cccnc2)cn1`, in [27], the GI50 was 0.911 µM and the TGI is 2.5 µM.

As to `COc1ccc2c(O)c(/C=C3\N=Nc4ncccc43)oc2c1C[C@@H]1CCNC[C@H]1F`, in experiment [27], the GI50 was 0.308 µM and the TGI is 1.43 µM.

Regarding `N#Cc1nc(C#N)c(Sc2ccccc2)c(Sc2ccccc2)c1Sc1ccccc1`, in experiment [27], the GI50 was 1.91 µM and the TGI is 5.8 µM.

With `N=C(N)c1ccc(-c2ccc(-c3ccc4ccccc4c3)s2)s1`, in [27], the GI50 was 2.38 µM and the TGI amounted to 5.2 µM.

Turning to `CS(=O)(=O)c1cccc(Nc2ncc3cc(-c4ccccc4Cl)ccc3n2)c1`, in [27], the GI50 was 2.07 µM and the TGI came out at 19.6 µM.

Take `c1ccc(Oc2ccc(Nc3ncc(-c4ccccc4)o3)cc2)cc1`: in experiment [27], the GI50 is over 25 µM and the TGI was over 25 µM.

Regarding `O=C(Nc1cc(F)c(F)cc1C(=O)O)c1ccc(-n2ccnc2)nn1`, in experiment [27], the GI50 was over 100 µM and the TGI was over 100 µM.

Consider `CC[C@H](C)[C@H](NC(=O)[C@H]1CCCCN1C)C(=O)N(C)[C@H](C[C@@H](OC(C)=O)c1cccc(C(=O)N[C@@H](Cc2ccccc2)C[C@H](C)C(=O)O)n1)C(C)C`, for which the GI50 in experiment [27] was 0.000353 µM and 0.0025 µM.

As for `COc1ccc(C2C(C#N)=C(N)Oc3c2sc2c(Br)cccc32)cc1` (centres undefined), in experiment [27], the GI50 was 1.86 µM and the TGI amounted to 5.55 µM.

On to `O=C(NCCOCCOCCOCCNC(=O)c1cc2c(o1)C(=O)c1ccccc1C2=O)NC12CC3CC(CC(C3)C1)C2`, for which, in experiment [27], the GI50 was 1.08 µM and the TGI came out at 4.37 µM.
